We go through six compounds from ChEMBL document CHEMBL5465560, “Selectivity Literature for EUbOPEN Chemogenomic Library” (2024).

The target of assay [1] is Cyclin-dependent kinase 8 (Homo sapiens, UniProt P49336). In words: Selectivity interaction (KinomeScan (DiscoverX)) EUB0001619a CDK8. The following applies: at 1 µM.
For assay [2], the target named is T1, Serine/threonine-protein kinase LATS1 (Homo sapiens) (UniProt O95835).
T1 sequence (whole entry): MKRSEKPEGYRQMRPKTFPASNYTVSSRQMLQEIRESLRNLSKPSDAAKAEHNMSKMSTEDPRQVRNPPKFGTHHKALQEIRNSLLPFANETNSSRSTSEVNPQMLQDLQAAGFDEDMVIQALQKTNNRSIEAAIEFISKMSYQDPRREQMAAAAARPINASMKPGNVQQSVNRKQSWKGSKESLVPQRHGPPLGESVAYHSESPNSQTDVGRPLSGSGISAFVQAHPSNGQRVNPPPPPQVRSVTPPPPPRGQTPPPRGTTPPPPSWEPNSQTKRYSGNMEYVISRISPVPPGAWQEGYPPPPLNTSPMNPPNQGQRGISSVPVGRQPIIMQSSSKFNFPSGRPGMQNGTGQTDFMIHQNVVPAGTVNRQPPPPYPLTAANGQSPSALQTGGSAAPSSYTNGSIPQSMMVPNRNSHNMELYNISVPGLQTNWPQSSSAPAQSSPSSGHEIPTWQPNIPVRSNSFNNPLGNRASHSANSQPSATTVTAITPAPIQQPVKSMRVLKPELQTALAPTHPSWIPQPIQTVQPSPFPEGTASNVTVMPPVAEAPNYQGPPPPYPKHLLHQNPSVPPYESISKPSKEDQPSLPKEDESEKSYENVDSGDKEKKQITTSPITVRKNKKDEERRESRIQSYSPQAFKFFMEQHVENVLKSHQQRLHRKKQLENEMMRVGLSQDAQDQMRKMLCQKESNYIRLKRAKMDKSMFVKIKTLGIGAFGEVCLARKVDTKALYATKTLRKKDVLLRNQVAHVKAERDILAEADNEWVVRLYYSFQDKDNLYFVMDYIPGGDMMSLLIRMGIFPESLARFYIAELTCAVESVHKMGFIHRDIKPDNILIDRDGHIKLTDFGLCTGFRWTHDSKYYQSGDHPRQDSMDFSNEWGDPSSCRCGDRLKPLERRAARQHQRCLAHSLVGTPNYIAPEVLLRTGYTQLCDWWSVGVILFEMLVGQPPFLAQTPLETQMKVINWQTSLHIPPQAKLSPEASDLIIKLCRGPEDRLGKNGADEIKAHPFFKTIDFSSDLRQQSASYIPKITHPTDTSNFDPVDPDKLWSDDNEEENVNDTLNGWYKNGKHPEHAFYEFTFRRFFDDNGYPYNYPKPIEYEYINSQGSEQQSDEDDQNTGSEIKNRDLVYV
In words: Selectivity interaction (ActivX KiNativ screen (kinase selectivity in THP-1 cell lysates)) EUB0000639a LATS1. In kind it is subcellular. The following applies: lysate, at 5 µM.

Assay [3] concerns the target DNA-dependent protein kinase catalytic subunit (Homo sapiens) (UniProt P78527). As to the kind of experiment: Selectivity interaction (ActivX KiNativ screen (kinase selectivity in THP-1 cell lysates)) EUB0000639a PRKDC. The following applies: lysate, at 0.04 µM. In kind it is subcellular.
Assay [4] has as its target CDC7/DBF4 (Cell division cycle 7-related protein kinase/Activator of S phase kinase) (Homo sapiens) (UniProt Q9UBU7+O00311). As to the kind of experiment: Selectivity interaction (ProQinase) EUB0000171b CDC7. In kind it is protein-complex assay.
The target in assay [5] is T2, Serine/threonine-protein kinase DCLK2 (Homo sapiens) (UniProt Q8N568).
T2 sequence (whole entry): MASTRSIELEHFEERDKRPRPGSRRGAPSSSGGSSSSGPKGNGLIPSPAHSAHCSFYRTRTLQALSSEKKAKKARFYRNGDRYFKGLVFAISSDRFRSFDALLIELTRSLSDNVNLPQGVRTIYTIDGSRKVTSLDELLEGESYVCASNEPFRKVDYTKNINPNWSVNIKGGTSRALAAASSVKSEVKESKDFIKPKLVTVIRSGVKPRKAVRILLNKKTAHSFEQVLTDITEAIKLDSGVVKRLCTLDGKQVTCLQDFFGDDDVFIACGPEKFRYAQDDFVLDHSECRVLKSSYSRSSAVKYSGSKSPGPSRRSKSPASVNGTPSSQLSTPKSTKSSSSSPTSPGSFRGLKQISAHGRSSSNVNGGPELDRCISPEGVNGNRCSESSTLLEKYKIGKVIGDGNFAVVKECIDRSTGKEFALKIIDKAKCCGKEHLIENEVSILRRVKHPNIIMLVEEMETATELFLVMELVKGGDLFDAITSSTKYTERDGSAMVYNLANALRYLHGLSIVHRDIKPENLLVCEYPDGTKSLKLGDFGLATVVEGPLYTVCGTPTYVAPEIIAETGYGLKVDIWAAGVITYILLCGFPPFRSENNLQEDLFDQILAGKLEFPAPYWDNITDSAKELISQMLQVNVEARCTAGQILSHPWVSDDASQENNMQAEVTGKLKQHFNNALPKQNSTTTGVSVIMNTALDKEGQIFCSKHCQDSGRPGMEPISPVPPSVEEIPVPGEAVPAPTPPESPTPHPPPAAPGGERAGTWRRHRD
As to the kind of experiment: Selectivity interaction (KinomeScan (DiscoverX)) EUB0000618a DCLK2. The following applies: at 10 µM.

For assay [6], the target named is 5-hydroxytryptamine receptor 2A (Homo sapiens, UniProt P28223). As to the kind of experiment: Selectivity interaction (GPCR panel (PDSP screen)) EUB0001079a HTR2A. The following applies: at 10 µM.
Assay [7] deals with T3, Mitogen-activated protein kinase kinase kinase 7 (Homo sapiens) (UniProt O43318).
T3 sequence (whole entry): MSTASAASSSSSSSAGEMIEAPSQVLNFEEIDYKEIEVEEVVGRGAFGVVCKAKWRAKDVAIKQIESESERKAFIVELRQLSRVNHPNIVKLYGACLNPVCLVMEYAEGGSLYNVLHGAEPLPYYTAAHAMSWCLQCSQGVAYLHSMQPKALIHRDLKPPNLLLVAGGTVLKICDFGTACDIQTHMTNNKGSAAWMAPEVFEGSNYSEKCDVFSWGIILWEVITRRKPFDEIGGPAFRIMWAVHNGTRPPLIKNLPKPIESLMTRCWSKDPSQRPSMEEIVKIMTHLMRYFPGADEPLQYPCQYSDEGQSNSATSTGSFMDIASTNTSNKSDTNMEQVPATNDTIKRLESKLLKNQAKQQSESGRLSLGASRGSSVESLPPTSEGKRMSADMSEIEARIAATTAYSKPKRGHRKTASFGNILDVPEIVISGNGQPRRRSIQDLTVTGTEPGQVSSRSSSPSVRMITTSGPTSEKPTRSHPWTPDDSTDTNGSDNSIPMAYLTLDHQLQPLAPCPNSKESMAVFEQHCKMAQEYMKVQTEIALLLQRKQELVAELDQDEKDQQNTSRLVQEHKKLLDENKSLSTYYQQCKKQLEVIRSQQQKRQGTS
As to the kind of experiment: Selectivity interaction (Kinase panel (KiNativ target engagement assay in Jurkat cells)) EUB0001635a MAP3K7. In kind it is cell-based. The following applies: Selectivity number of off-targets 0.0, Selectivity number of targets 233.0, Source Knowledge https://www.sciencedirect.com/science/article/pii/S2451945619300674?via%3Dihub, at 1 µM.

Structures are written as SMILES.

CDC7/DBF4 (Cell division cycle 7-related protein kinase/Activator of S phase kinase) (Homo sapiens), sequence (O00311 whole entry, looked up): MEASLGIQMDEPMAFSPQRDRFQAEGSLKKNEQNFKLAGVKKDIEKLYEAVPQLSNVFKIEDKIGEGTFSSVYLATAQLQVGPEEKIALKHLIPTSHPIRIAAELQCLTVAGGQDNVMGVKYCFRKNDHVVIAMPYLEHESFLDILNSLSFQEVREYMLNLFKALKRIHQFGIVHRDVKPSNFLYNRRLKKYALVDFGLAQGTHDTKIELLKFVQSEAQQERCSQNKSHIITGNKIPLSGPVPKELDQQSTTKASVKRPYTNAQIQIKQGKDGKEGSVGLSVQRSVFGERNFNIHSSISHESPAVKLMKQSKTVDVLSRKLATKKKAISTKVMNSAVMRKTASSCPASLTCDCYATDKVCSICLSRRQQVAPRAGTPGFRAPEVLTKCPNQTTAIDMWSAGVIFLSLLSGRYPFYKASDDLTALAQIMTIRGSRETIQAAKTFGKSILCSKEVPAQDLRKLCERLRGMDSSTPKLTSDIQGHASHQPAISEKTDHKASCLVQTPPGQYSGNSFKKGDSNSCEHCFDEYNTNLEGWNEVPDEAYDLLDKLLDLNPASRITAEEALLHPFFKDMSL
CDC7/DBF4 (Cell division cycle 7-related protein kinase/Activator of S phase kinase) (Homo sapiens), sequence (Q9UBU7 whole entry, looked up): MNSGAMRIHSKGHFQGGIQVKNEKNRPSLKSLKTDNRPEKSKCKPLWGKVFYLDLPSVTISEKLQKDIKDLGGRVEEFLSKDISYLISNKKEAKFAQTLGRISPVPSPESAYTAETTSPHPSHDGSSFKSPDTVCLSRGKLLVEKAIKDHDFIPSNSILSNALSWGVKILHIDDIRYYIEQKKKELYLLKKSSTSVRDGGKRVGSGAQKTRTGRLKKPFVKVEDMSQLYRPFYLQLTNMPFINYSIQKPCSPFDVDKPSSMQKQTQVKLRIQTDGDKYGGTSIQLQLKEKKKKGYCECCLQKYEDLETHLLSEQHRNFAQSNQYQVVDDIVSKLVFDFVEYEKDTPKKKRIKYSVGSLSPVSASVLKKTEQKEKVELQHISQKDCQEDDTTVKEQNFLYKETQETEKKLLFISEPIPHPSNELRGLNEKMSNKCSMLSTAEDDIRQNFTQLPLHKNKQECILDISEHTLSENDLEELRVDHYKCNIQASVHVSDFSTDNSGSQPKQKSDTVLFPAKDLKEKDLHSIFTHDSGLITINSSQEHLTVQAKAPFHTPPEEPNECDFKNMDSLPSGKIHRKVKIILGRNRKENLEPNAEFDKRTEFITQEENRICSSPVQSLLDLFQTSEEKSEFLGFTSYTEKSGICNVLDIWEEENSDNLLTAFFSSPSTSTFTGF
5-hydroxytryptamine receptor 2A, sequence (P28223 whole entry): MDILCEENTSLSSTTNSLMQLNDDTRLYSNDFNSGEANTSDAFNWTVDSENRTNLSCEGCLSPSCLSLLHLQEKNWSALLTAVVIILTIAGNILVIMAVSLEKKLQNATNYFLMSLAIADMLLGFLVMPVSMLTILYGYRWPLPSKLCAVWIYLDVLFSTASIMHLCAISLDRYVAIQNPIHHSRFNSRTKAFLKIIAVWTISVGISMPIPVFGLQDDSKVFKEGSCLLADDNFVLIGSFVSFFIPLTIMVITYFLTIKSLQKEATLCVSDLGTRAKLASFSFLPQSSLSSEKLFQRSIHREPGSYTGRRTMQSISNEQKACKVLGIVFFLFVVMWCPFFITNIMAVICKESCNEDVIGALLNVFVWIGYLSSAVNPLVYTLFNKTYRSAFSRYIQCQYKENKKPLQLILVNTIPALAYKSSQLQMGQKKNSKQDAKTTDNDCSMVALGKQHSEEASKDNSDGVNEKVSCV
Cyclin-dependent kinase 8, sequence (P49336 whole entry): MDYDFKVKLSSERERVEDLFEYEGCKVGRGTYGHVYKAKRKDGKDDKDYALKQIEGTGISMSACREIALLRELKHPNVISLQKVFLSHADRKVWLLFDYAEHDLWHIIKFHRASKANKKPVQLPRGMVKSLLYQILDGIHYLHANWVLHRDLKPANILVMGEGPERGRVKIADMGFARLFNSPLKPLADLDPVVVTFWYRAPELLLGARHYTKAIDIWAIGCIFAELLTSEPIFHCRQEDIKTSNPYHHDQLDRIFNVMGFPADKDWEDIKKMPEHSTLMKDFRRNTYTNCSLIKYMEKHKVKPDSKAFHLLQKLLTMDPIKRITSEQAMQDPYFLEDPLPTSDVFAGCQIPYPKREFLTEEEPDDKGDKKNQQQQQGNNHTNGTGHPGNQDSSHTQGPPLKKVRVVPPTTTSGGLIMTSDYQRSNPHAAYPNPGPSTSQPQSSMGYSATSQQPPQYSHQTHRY

For the compound `N#Cc1cccc(-c2c[nH]c3ncnc(N4CCOCC4)c23)c1`, the % of control in assay [1] stood at 80%. Take `CC[C@@H]1[C@H](F)C(=O)N[C@@H]1COc1nccc2cc(C(N)=O)c(OC)cc12` [ZIMLOVISERTIB]: the results for the % of inhibition in assay [2] and in assay [3] were -31.2% and -0.6%, respectively.

As for `C=CC(=O)Nc1cccc(C(=O)Nc2ccc(Nc3cc(-c4[nH]c(SC)nc4C)ccn3)cc2)c1`, the results for the % of control in assay [4] (at 1 µM) and in assay [4] (at 5 µM) were 94% and 89%, respectively. With `O[C@H]1CC[C@H](Nc2ncc3nc(Nc4c(F)cc(F)cc4F)n([C@H]4CCOC4)c3n2)CC1`, the % of control in assay [5] was 100%. For `Nc1cnc(N2CCc3cc(S(=O)(=O)Nc4c(F)cc(Cl)cc4F)cc(N4CCCC4=O)c32)nc1` [TP-020n], the % of inhibition in assay [6] was -2.82%. Consider `C=CC(=O)Nc1ccc(C(=O)Nc2[nH]nc3c2CN(C(=O)N[C@H](CN(C)C)c2ccccc2)C3(C)C)cc1`, for which, in assay [7], the % of engagement is -4.8%.
